What was measured:
[1] = Body weight, body surface area and body mass index during treatment; assay type: in vivo, mouse; conditions: Ts2Cje mice; sitagliptin 5 mM intranasal, 21 days
Protocol: Finally, animals were sacrificed using cervical dislocation.
Furthermore, mice were measured at the beginning and at the end of the treatment to evaluate the length in centimeters (cm). For calculating the body mass surface, the DuBois equation was used: body surface area (m^2)=0.007184×weight ([…])×height ([…]). The body mass index was calculated as the ratio between weight and BSA (gr/m^2). At the end of the treatment, the glucose tolerance test (GTT) was carried out on the four experimental groups. After a fasting period of 6 hours, the animals' basal blood glucose was assessed with a small blood sample from the tail (T0). Subsequently, the same animals were treated with a glucose solution (10%, intraperitoneal injection) and blood glucose was measured with a glucometer (lineD ORO, Bioseven) after 30-60-90-120 minutes.

[2] = tested on: MAPK44/42 and Akt pathway; assay: Western blot of Akt and MAPK44/42 activation in hippocampus; assay type: in vivo, mouse
Protocol: For the duration of the treatment, the mice were weighed weekly in order to assess any weight changes. After 21 days of treatment, the animals underwent a behavioral test to assess their memory and learning abilities. After the behavioral test, metabolic parameters such as blood glucose (both fasting and under the glycemic curve), body surface area (BSA) and body mass index (BMI) were assessed. Finally, animals were sacrificed using cervical dislocation. The brain and peripheral areas were isolated and collected in liquid nitrogen and subsequently stored at −80° C. until they were used for biochemical analyzes.
Total protein extracts were prepared from the frontal cortex for human autopsy samples and from the hippocampus for mouse samples, using RIPA solution (pH 7.4) containing TrisHCl (50 mM, pH 7.4), NaCl (150 mM), 1% NP-40, 0.25% sodium deoxycholate, ethylenediamine tetracetic acid (EDTA) (1 mM), and 0.1% sodium dodecyl sulfate (SDS). […] For the rest of the experiments, protein extracts were supplemented with cocktails of protease and phosphatase inhibitors (Sigma Aldrich, St Louis, MO, USA). Brain tissues were homogenized in the solution described above by sonication, and centrifuged at 14,000 rpm for 30 min at 4° C. The supernatant was used to determine total protein concentration by means of the bicinchoninic acid assay (BCA, Pierce, Rockford, IL). […]

## N[C@@H](CC(=O)N1CCn2c(nnc2C(F)(F)F)C1)Cc1cc(F)c(F)cc1F [sitagliptin, (R)-4-oxo-4-[3-(trifluoromethyl)-5,6-dihydro[1,2,4]triazole[4,3-a]pyrazin-7(8H)-yl]-1-(2,4,5-trifluorophenyl)butan-2-amine]
[1]
  phenotypic or morphometric changes (weight, BSA, BMI): no phenotypic or morphometric changes
[2]; Western blot p(Thr202/Tyr204)-MAPK44/42
  activation of the cerebral insulin signal, MAPK44/42: restoration of the activation
[2]; Western blot p(ser473)-Akt
  activation of the cerebral insulin signal, Akt: restoration of the activation
